For one molecule, inhibition, Activity and viability results are on record in ChEMBL document CHEMBL6153097, “Design, synthesis, and biological evaluation of Flavokavain B derivatives as potent TRF2 inhibitors for the treatment of Osteosarcoma” (Eur J Med Chem, 2025).

Molecules are shown by their SMILES. Calls of active or inactive are those of the source. No cut-off for these calls is given here.

The nature of data set [1]: Inhibition of TRF2 expression in human U2OS cells at 2 uM measured after 48 hrs by Western blot analysis relative to control. Format: functional. (In general: Immunoblotting shows a protein as a band on a membrane.)
For data set [2], the system named is U2OS. In words: Downregulation of TRF expression levels in human U2OS cells measured after 48 hrs by Western blot analysis. Format: functional, cell-based. The following applies: dose 2-4 µM.
Data set [3] deals with MG-63. The data set is described as follows: Downregulation of TRF expression levels in human MG-63 cells measured after 48 hrs by Western blot analysis. The following applies: dose 2-4 µM. It counts as functional, cell-based.
Data set [4] concerns U2OS. In words: Induction of apoptosis in human U2OS cells assessed as late apoptotic cells at 2 uM measured after 48 hrs annexin-V and propidium iodide staining based flow cytometry analysis (reference value: 5.94%). Format: functional. A general note: In flow cytometry, cells or beads pass a laser one at a time.
Data set [5] has as its system U2OS. In words: Induction of apoptosis in human U2OS cells assessed as necrotic apoptotic cells at 2 uM measured after 48 hrs annexin-V and propidium iodide staining based flow cytometry analysis (reference value: 2.46%). It counts as functional.
Data set [6] deals with U2OS. In words: Induction of apoptosis in human U2OS cells assessed as viable cells at 4 uM measured after 48 hrs annexin-V and propidium iodide staining based flow cytometry analysis (reference value: 89.2%). It counts as functional. The following applies: read-out: Activity.
Data set [7] has as its system U2OS. In words: Induction of apoptosis in human U2OS cells assessed as late apoptotic cells at 4 uM measured after 48 hrs annexin-V and propidium iodide staining based flow cytometry analysis (reference value: 5.94%). Format: functional.
Data set [8] deals with MG-63. The data set is described as follows: Induction of apoptosis in human MG-63 cells assessed as viable cells at 2 uM measured after 48 hrs annexin-V and propidium iodide staining based flow cytometry analysis (reference value: 90.7%). Format: functional. The following applies: read-out: Activity.
Data set [9] deals with MG-63. In words: Induction of apoptosis in human MG-63 cells assessed as late apoptotic cells at 2 uM measured after 48 hrs annexin-V and propidium iodide staining based flow cytometry analysis (reference value: 7.71%). It counts as functional.
Data set [10] deals with MG-63. In words: Induction of apoptosis in human MG-63 cells assessed as early apoptotic cells at 4 uM measured after 48 hrs annexin-V and propidium iodide staining based flow cytometry analysis (reference value: 0.66%). It counts as functional.
Data set [11] deals with MG-63. In words: Induction of apoptosis in human MG-63 cells assessed as necrotic cells at 4 uM measured after 48 hrs annexin-V and propidium iodide staining based flow cytometry analysis (reference value: 0.52%). It counts as functional.
Data set [12] deals with U2OS. The data set is described as follows: Antiproliferative activity against human U2OS cells assessed as reduction in cell viability at 2 to 4 uM measured for 8 days by PDL assay. It counts as functional, cell-based. The following applies: dose 2-4 µM, time 8.0 day.
Data set [13] has as its system MG-63. The data set is described as follows: Antiproliferative activity against human MG-63 cells assessed as reduction in cell viability at 2 to 4 uM measured for 8 days by PDL assay. Format: functional, cell-based. The following applies: dose 2-4 µM, time 8.0 day.
Data set [14] deals with MG-63. The data set is described as follows: Induction of apoptosis in human MG-63 cells assessed as reduction in colocalization of TRF2 with telomere at 2 to 4 microM by Immunofluorescence based FISH assay. Format: functional, cell-based. The following applies: dose 2-4 µM.
Data set [15] relates to MG-63. In words: Induction of DNA damage in human MG-63 cells assessed as increase in 53BP1 foci by Immunofluorescence based FISH assay. Format: functional, cell-based. The following applies: dose 2-4 µM.
Data set [16] relates to MG-63. The data set is described as follows: Induction of DNA damage response in human MG-63 cells assessed as telomere dysfunction by measuring telomere length shortening at 2 to 4 uM by Immunofluorescence based FISH assay. It counts as functional, cell-based. The following applies: dose 2-4 µM.
Data set [17] has as its target T1, Telomeric repeat-binding factor 2 (Homo sapiens) (UniProt Q15554).
T1 sequence (whole entry): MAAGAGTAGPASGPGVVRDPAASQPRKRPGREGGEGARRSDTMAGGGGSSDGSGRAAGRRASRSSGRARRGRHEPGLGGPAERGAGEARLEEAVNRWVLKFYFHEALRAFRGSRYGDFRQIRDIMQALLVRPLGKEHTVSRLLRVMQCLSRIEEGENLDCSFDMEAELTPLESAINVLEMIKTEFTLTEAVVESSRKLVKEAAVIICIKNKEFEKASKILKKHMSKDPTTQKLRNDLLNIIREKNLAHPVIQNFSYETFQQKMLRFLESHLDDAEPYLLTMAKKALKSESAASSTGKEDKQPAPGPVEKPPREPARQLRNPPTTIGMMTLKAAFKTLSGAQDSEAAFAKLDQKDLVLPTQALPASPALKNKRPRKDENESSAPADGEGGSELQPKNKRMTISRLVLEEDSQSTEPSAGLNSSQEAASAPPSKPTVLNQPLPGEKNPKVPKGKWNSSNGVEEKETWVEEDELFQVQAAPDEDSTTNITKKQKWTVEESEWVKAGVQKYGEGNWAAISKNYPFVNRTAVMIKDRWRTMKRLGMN
In words: Induction of thermal stabilization of TRF2 TRFH domain in human MG-63 cells at 46 to 55 degC incubated for 4 hrs by cellular thermal shift assay (CESTA) based Western blot analysis. It counts as cell-based.

In data set [18] the test system is MG-63. The data set is described as follows: […] inhibition of TRF2 expression in human MG-63 cells at 4 uM measured upto 12 hrs measured after drug washout by Western blot analysis. Format: functional, cell-based.
The subject of data set [19] is U2OS. In words: Inhibition of TRF2 expression in human U2OS cells by co-immunoprecipitation based Western blot analysis. Format: functional, cell-based.
Data set [20] can be described thus: Acute toxicity in mouse assessed as effect on body weight at 30 to 90 mg/kg, po single dose measured for 7 days. It counts as organism-based. The following applies: in vivo, 168 h, dose 30-90 mg/kg, time 7 day.
A short description of data set [21]: Acute toxicity in mouse assessed as aspartate transaminase level (AST) level in serum at 30 to 90 mg/kg, po single dose measured for 7 days. Format: organism-based. The following applies: in vivo, 168 h, dose 30-90 mg/kg, time 7 day.
Data set [22] can be described thus: Acute toxicity in mouse assessed as change in weight of kidney at 30 to 90 mg/kg, po single dose measured for 7 days. It counts as organism-based. The following applies: in vivo, 168 h, dose 30-90 mg/kg, time 7 day.
The nature of data set [23]: Toxicity in female BALB/c mouse model xenografted with human MG-63 cells assessed as drug tolerance at 10 to 60 mg/kg, via oral gavage administered once a day for 3 weeks. Format: organism-based. The following applies: in vivo, 504 h, dose 10-60 mg/kg. (In xenograft studies the graft and the host belong to different species.)

`COc1cc(OC)c(C(=O)/C=C/c2cccc(Br)c2)c(OC)c1` gave an inhibition at 2 µM in [1] of 55.1%. Moreover, the Activity result with U2OS [2] is “Dose-dependent-effect”; in the data set on MG-63 [3], “Dose-dependent-effect”; in the data set on U2OS [4] it was 18.3%; with U2OS [5], 1.18%; in the data set with U2OS [7], 16.3%; with MG-63 [9], 38.2%. In addition, the Activity with MG-63 [10] was 15.2%; in the data set with MG-63 [11] it was 5.47%; in the data set with MG-63 [15], “Dose-dependent-effect”; with MG-63 [16], “Dose-dependent-effect”; in the data set on MG-63 [18], “Active; Returned To Control Levels Within 4 Hrs”; in data set [20], “Non-toxic”. Also, the Activity entry in data set [21], in data set [22] and in [23] was “Non-toxic” each time. The viability at 4 µM in the data set with U2OS [6] stood at 52.2%. For the same molecule, the viability at 2 µM with MG-63 [8] worked out at 47.9%. Moreover, the result (with U2OS [12]; in the data set with MG-63 [13]; in the data set on MG-63 [14]; in [17]) was Active. The inhibition result with U2OS [19] was “Active”.

As usually defined, the inhibition is the change of the read-out against control, counted positive when it falls.
